Ends that are not written are not given here.
Tests used:
[1] = system: CETP; experiment: Cholesteryl ester transfer assay (3H CE-HDL to VLDL+LDL, baboon LPDS as CETP source); format: biochemical; details: for effect on transfer of CE from HDL to VLDL+LDL: electroeluted from gels, increasing concentrations, lipoproteins from low HDL1 baboons; for inhibitory activity of CETP: in vitro, result in words
Procedure: The CE transfer activity of a sample was assayed by a modification of a procedure described previously (Kushwaha et al, (1986), supra). Briefly, ^3 H CE-labeled HDL3 containing 50-100 μg of CE from low HDL1 baboons was incubated with VLDL+LDL containing 100-300 μg CE in the presence of LPDS. The acceptor lipoproteins and the LPDS were obtained from low HDL1 baboon plasma (chow diet). In some cases, the HDL3 was obtained from high HDL1 baboons maintained on the HCHF diet. The incubations were carried out at 4° C. (control) and 37° C. for 4-6 hrs, and terminated by placing the samples on ice. The assay mixture was then ultracentrifuged to separate VLDL+LDL having a d>1.040 g/ml, and the radioactivity in the lipoproteins was counted as described previously (Kushwaha et al, (1986), supra). Any difference observed in the radioactivity transferred from HDL to VLDL+LDL at 4° C. and 37° C. was attributed to CETP activity in the LPDS. Time course experiments gave a linear response up to 7 hrs. Similarly, the CETP activity was linear with increasing LPDS, up to 140 μl LPDS, which was derived from an equivalent volume of plasma. The polypeptide of the invention, and synthetic fragments thereof were added to the reaction mixture to determine their CETP inhibitory activities, along with an appropriate synthetic control peptide. The percent difference between the control experiment and the assay with inhibitor peptide was expressed as the inhibitor activity. A CE transfer assay as described in Example 4 above was conducted using HDL1 baboon plasma, ^3 H HDL, and the VLDL+LDL carriers, in the presence of CETP enzyme to mediate the exchange. The reactions were conducted at 37° C. and at 4° C. (control) in duplicate.

[2] = target: T1, Human CETP (Homo sapiens, UniProt P11597); experiment: Inhibition of human CETP by synthetic CETP inhibitor peptide (human LPDS); format: biochemical; details: 100 μg peptide, HDL 10 μg, VLDL+LDL 50 μg, CETP 200 μl, 37 °C
T1 construct: To isolate human CETP, blood (5-10 ml) from human subjects was obtained in tubes containing EDTA; from tissue; host or cells: human plasma of individual donors, supernatant after heparin/MnCl2 and dextran sulfate precipitation of lipoproteins
T1 sequence (P11597 18-493): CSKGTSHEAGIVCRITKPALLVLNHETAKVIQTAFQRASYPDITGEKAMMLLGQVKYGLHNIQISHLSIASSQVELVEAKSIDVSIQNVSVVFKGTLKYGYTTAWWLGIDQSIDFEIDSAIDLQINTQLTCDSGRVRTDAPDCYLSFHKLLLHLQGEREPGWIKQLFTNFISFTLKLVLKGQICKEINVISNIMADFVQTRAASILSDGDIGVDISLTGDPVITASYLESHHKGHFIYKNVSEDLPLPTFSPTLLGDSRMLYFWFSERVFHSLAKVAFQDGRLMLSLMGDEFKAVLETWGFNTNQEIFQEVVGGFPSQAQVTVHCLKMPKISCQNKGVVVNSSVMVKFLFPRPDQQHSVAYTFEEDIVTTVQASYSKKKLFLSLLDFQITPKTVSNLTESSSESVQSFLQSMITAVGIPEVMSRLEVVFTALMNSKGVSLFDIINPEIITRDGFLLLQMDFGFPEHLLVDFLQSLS

[3] = target: baboon plasma cholesteryl ester transfer protein (CETP), supplied as lipoprotein-deficient serum (LPDS, d>1.21 g/ml) from low HDL1 baboon plasma (baboon (papio sp.))

4 kD polypeptide: endogenous CETP inhibitor polypeptide of molecular weight 4,000 electroeluted from lipoproteins of high HDL1 baboons (DVSSALDKLKEFGNTLEDKAWEVINRIKQSEFPAKT)
effect on transfer of CE from HDL to VLDL+LDL [1]: significantly inhibited CETP activity

APDVSSALDKLKEFGNTLEDKAWEVINRIKQSEFPAKT [SEQ. ID. NO:2]
Inhibition (%) ([2]; human CETP source AB (S.N. 6)): 60% | Inhibition (%) ([2]; human CETP source EJ (S.N. 3)): 85% | Inhibition (%) ([2]; human CETP source EW (S.N. 11)): 71% | Inhibition (%) ([2]; human CETP source GL (S.N. 7)): 85% | Inhibition (%) ([2]; human CETP source KC (S.N. 8)): 83% | Inhibition (%) ([2]; human CETP source KR (S.N. 5)): 82% | Inhibition (%) ([2]; human CETP source ML (S.N. 12)): 77% | Inhibition (%) ([2]; human CETP source RK (S.N. 2)): 72% | Inhibition (%) ([2]; human CETP source SH (S.N. 1)): 60% | Inhibition (%) ([2]; human CETP source TH (S.N. 9)): 86% | Inhibition (%) ([2]; human CETP source UM (S.N. 10)): 90%

Albumin [reference compound]
effect on transfer of CE from HDL to VLDL+LDL [1]: no effect

SEQ. ID. NO:1: synthetic 36 amino acid peptide, sequence of the 4 kD baboon CETP inhibitor, common with N-terminal fragment of apo C-I (DVSSALDKLKEFGNTLEDKAWEVINRIKQSEFPAKT)
inhibition of CE transfer from HDL to VLDL and LDL ([1]; 50 μg peptide, lipoproteins of low HDL1 baboons): significantly (p<0.01) inhibited | inhibitory activity of CETP [1]: inhibitory of CETP

amino acids 1 to 10: N-terminal fragment of SEQ. ID. NO:1, amino acids 1 to 10 (DVSSALDKLK)
inhibitory activity of CETP [1]: active as inhibitors of CETP

amino acids 1 to 15: N-terminal fragment of SEQ. ID. NO:1, amino acids 1 to 15 (DVSSALDKLKEFGNT)
inhibitory activity of CETP [1]: active as inhibitors of CETP

amino acids 1 to 20: N-terminal fragment of SEQ. ID. NO:1, amino acids 1 to 20 (DVSSALDKLKEFGNTLEDKA)
inhibitory activity of CETP [1]: active as inhibitors of CETP

amino acids 15 to 30: intermediate fragment of SEQ. ID. NO:1, amino acids 15 to 30 (TLEDKAWEVINRIKQS)
inhibitory activity of CETP [1]: active as inhibitors of CETP

amino acids 16 to 36: C-terminal fragment of SEQ. ID. NO:1, amino acids 16 to 36 (21 amino acids) (LEDKAWEVINRIKQSEFPAKT)
inhibitory activity of CETP at 50 μg ([1]; 50 μg peptide): limited inhibitory activity

amino acids 28 to 36: C-terminal fragment of SEQ. ID. NO:1, amino acids 28 to 36 (9 amino acids) (KQSEFPAKT)
inhibitory activity of CETP at 50 μg ([1]; 50 μg peptide): limited inhibitory activity | activity inhibitory of CETP at 200 μg ([1]; 200 μg peptide, compared with the 36 amino acid peptide): approximately the same as that of the 36 amino acid peptide

TPDVSSALDKLKEFGNTLEDKARELISRIKQSELSAKM [synthetic CETP inhibitor peptide, human apo C-I terminal peptide with 38 amino acids (SEQ ID NO 3)]
Inhibition (%) of CETP-mediated cholesteryl ester transfer [3]: 60%

APDVSSALDKLKEFGNTLEDKAWEVINRIKQSEFPAKT [synthetic CETP inhibitor peptide, baboon apo C-I terminal peptide with 38 amino acids (SEQ ID NO 2)]
Inhibition (%) of CETP-mediated cholesteryl ester transfer [3]: 52%

From patent US5519001A, “CETP inhibitor polypeptide antibodies against the synthetic polypeptide and prophylactic and therapeutic anti-atherosclerosis treatments” (Southwest Foundation for Biomedical Research, priority 1995, dated 1996)
